From the supplement of paper PMC12592484

Key:
Test in all cases: drug sensitivity score (DSS2, normalised partial AUC of dose-response, 72 h CellTiter-Glo viability) (DSS (dimensionless)); higher = more sensitive (stronger growth inhibition / cytotoxicity); extreme values may be limits of the assay
PF179T = system: PF179T
Procedure, shortened: (§1)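 Low-passage primary prostate cancer-associated fibroblasts, PF179T, WPMY-1, LNCaP and 22Rv1 cells were seeded into 384-well plates carrying pre-dispensed compounds at five doses covering a 10,000-fold range. After 72 h, viability was read by CellTiter-Glo 2.0 luminescence. Responses were scaled to vehicle and positive-control wells. The drug sensitivity score (DSS2) is a partial area under the fitted logistic dose–response curve divided by the log of its upper asymptote, computed in BREEZE; higher means more sensitive.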

LNCAP = system: LNCAP
Procedure, shortened: as §1

CAF#4 = system: CAF#4 (primary prostate cancer-associated fibroblasts of iCAF-like type)
Procedure, shortened: as §1

WPMY-1 = system: WPMY-1
Procedure, shortened: as §1

CAF#5 = system: CAF#5 (primary prostate cancer-associated fibroblasts of myCAF-like type)
Procedure, shortened: as §1

CAF#1 = system: CAF#1 (primary prostate cancer-associated fibroblasts of myCAF-like type)
Procedure, shortened: as §1

CAF#3 = system: CAF#3 (primary prostate cancer-associated fibroblasts of myCAF-like type)
Procedure, shortened: as §1

CAF#2 = system: CAF#2 (primary prostate cancer-associated fibroblasts of iCAF-like type)
Procedure, shortened: as §1

CAF#6 = system: CAF#6 (primary prostate cancer-associated fibroblasts of iCAF-like type)
Procedure, shortened: as §1

22Rv1 = system: 22Rv1
Procedure, shortened: as §1

CAF#7 = system: CAF#7 (primary prostate cancer-associated fibroblasts of myCAF-like type)
Procedure, shortened: as §1

Row | Structure (SMILES) | drug sensitivity score (PF179T) | drug sensitivity score (LNCAP) | drug sensitivity score (CAF#4) | drug sensitivity score (WPMY-1) | drug sensitivity score (CAF#5) | drug sensitivity score (CAF#1) | drug sensitivity score (CAF#3) | drug sensitivity score (CAF#2) | drug sensitivity score (CAF#6) | drug sensitivity score (22Rv1) | drug sensitivity score (CAF#7)
1 | CC(C)C(=O)Nc1ccc([N+](=O)[O-])c(C(F)(F)F)c1 [Flutamide] (tested concentration range 1-10000 nM) | 0 | 1.1 | 4.8 | 0 | 0.5 | 0 | 0 | 2.8 | 0 | 0.6 | 0
2 | COc1cc2c(Oc3ccc(NC(=O)C4(C(=O)Nc5ccc(F)cc5)CC4)cc3F)ccnc2cc1OCCCN1CCOCC1 [Foretinib] (tested concentration range 0.1-1000 nM) | 6.8 | 5.6 | 6.9 | 7.9 | 6.7 | 6.8 | 7.9 | 10.3 | 5.2 | 3.4 | 7
3 | COc1cc(Nc2ncc(F)c(Nc3ccc4c(n3)N(COP(=O)(O)O)C(=O)C(C)(C)O4)n2)cc(OC)c1OC [Fostamatinib] (tested concentration range 0.2-2500 nM) | 7.3 | 4.4 | 5.3 | 4.4 | 7.2 | 7.7 | 6.6 | 8.4 | 5.6 | 0 | 7
4 | C[C@]12CC[C@@H]3c4ccc(O)cc4C[C@@H](CCCCCCCCC[S+]([O-])CCCC(F)(F)C(F)(F)F)[C@H]3[C@@H]1CC[C@@H]2O (stereo partly drawn) [Fulvestrant] (tested concentration range 0.1-1000 nM) | 0 | 0.3 | 0 | 0 | 0 | 0 | 0.2 | 0 | 0.1 | 0 | 0
5 | CNc1nc(Nc2cn(C(C)(C)C#N)nc2C)ncc1C(F)(F)F [GNE-0877] (tested concentration range 0.1-1000 nM) | 0 | 0 | 0 | 0 | 0 | 0 | 0 | 0 | 0 | 0 | 0
6 | CCCOc1ccn2c(C(C)=O)cc(-c3ccccc3S(C)(=O)=O)c2c1 [GSK2801] (tested concentration range 1-10000 nM) | 0 | 1.2 | 0 | 0 | 0.4 | 0 | 0 | 0 | 0 | 0 | 0
7 | CCOC(=O)CCNc1cc(N2CCc3ccccc3CC2)nc(-c2ccccn2)n1 [GSK-J4] (tested concentration range 10-100000 nM) | 0.3 | 3.5 | 3.7 | 0.5 | 0.3 | 2.1 | 0.6 | 4.3 | 0 | 2.1 | 0
8 | Cc1cccc(-c2nn3c(c2-c2ccnc4ccc(C(N)=O)cc24)CCC3)n1 [Galunisertib] (tested concentration range 0.1-1000 nM) | 0 | 0 | 0 | 0 | 0 | 0 | 0.1 | 0 | 0 | 0 | 0
9 | CC(C)c1cc(-c2n[nH]c(=O)n2-c2ccc3c(ccn3C)c2)c(O)cc1O [Ganetespib] (tested concentration range 0.1-1000 nM) | 20.9 | 21.9 | 18.3 | 24.3 | 22.3 | 24.1 | 16.9 | 20.3 | 14.3 | 23.9 | 15.9
10 | CN(C)C1CCN(C(=O)c2ccc(NC(=O)Nc3ccc(-c4nc(N5CCOCC5)nc(N5CCOCC5)n4)cc3)cc2)CC1 [Gedatolisib] (tested concentration range 0.1-1000 nM) | 8.1 | 19.8 | 5.6 | 14.8 | 9.8 | 5.9 | 8.9 | 5.1 | 10.9 | 22.5 | 13.1
11 | COc1cc2ncnc(Nc3ccc(F)c(Cl)c3)c2cc1OCCCN1CCOCC1 [Gefitinib] (tested concentration range 1-10000 nM) | 1.7 | 2.6 | 2.8 | 2.1 | 0.5 | 0 | 0.2 | 2 | 0.2 | 3.9 | 0.2
12 | Nc1ccn([C@@H]2O[C@H](CO)[C@@H](O)C2(F)F)c(=O)n1 [Gemcitabine] (tested concentration range 0.1-1000 nM) | 18 | 16.4 | 8 | 22.5 | 5.6 | 3.1 | 3.9 | 10 | 4.4 | 20.9 | 7.2
13 | CCc1nc(C(N)=O)c(Nc2ccc(N3CCC(N4CCN(C)CC4)CC3)c(OC)c2)nc1NC1CCOCC1 [Gilteritinib] (tested concentration range 0.1-1000 nM) | 1.3 | 0 | 0 | 5.2 | 0.1 | 0.3 | 0 | 0 | 0 | 1.7 | 0
